According to patent publication US20250034211A1, “C-TERMINAL EXTENDED P53 ACTIVATOR CROSSLINKED PEPTIDOMIMETIC MACROCYCLES AGAINST MDM2/MDMX” (Merck Sharp & Dohme LLC, priority 2021, published 2025):
pEC50, pKd: −log10 of the molar value. In brackets after ≈: the same amount, converted by molar mass. Where two headings read alike, the source gives them in different places. Where a SMILES comes first, the peptide text is derived from it. Bridges are numbered along the chain shown (N, C = ends). [ ]: non-standard residue; d: D form. Lys(N3) = [N-]=[N+]=NCCCC[C@H](N)C(=O)O; Gla = N[C@@H](CC(C(=O)O)C(=O)O)C(=O)O; R8 = C=CCCCCCC[C@@](C)(N)C(=O)O; Cba = N[C@@H](CC1CCC1)C(=O)O; S5 = C=CCCC[C@](C)(N)C(=O)O; Aib = CC(C)(N)C(=O)O; βAla = NCCC(=O)O

Assays:
[1] = Solubility (PBS, pH 7); conditions: for solubility: PBS, pH 7
[2] = molecular target: T1, MDM2 (1-125; SEQ ID NO 14) (Homo sapiens, UniProt Q00987); experiment: MDM2 binding assay (fluorescence anisotropy competition, FP)
T1 construct: GST (N); His6 (internal); TEV cleavage site ENLYFQG (internal); made in house; host or cells: E. coli BL21 (DE3) Rosetta T1R
T1 sequence (Q00987 with tags, fused parts or gaps): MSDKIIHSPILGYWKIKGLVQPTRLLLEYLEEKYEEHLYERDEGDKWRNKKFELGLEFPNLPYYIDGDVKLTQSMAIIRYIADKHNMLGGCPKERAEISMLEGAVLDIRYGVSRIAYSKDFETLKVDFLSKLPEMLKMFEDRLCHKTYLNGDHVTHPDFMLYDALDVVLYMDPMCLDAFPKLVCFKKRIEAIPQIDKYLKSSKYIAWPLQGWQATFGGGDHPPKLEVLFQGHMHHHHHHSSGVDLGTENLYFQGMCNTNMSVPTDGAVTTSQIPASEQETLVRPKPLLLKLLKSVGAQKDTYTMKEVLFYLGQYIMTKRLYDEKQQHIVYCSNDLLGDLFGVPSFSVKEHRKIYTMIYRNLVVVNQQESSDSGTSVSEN
Experimental: [P] is the protein concentration (MDM2), [L] is the labeled peptide concentration, r is the anisotropy measured, r0 is the anisotropy of the free peptide, rb is the anisotropy of the MDM2-FAM-labeled peptide complex, Kd is the dissociation constant, [L]t is the total FAM labeled peptide concentration, and [P]t is the total MDM2 concentration. […] The competing molecules were then titrated against the complex of the FAM-labeled peptide and protein. Apparent Kd values were determined by fitting the experimental data to the equations shown below:
[L]st and [L]t denote labeled ligand and total unlabeled ligand input concentrations, respectively. Kd2 is the dissociation constant of the interaction between the unlabeled ligand and the protein. In all competition experiments, it is assumed that [P]t>[L]st, otherwise considerable amounts of free labeled ligand would always be present and would interfere with measurements. […] The FAM-labeled peptide was dissolved in dimethyl sulfoxide (DMSO) at 1 mM and diluted into experimental buffer. Readings were carried out with an Envision Multilabel Reader (PerkinElmer). […] All titrations were carried out in triplicate. Curve-fitting was carried out using Prism 4.0 (GraphPad). […] Negative control titrations of the ligands under investigation were also carried out with the fluorescently labeled peptide (in the absence of MDM2) to ensure no interactions were occurring between the ligands and the FAM-labeled peptide.

[3] = test system: p53 (HCT116 cells stably transfected with a p53 responsive β-lactamase reporter); experiment: p53 beta-lactamase reporter gene cellular functional assay; format: cell-based
Experimental: HCT116 cells were stably transfected with a p53 responsive β-lactamase reporter, and were seeded into a 384-well plate at a density of 8,000 cells per well. Cells were maintained in McCoy's 5A Medium with 10% fetal bovine serum ([…]), Blasticidin and Penicillin/Streptomycin. The cells were incubated overnight and followed by removal of cell growth media and replaced with Opti-MEM either containing 0% FBS or 10% FBS. Peptides were then dispensed to each well using a liquid handler, ECHO 555 and incubated for 4/16 hours. Final working concentration of dimethyl sulfoxide (DMSO) was 0.5%. β-Lactamase activity was detected using the ToxBLAzer Dual Screen (Invitrogen) as per manufacturer's instructions. Measurements were done using Envision multiplate reader (Perkin-Elmer). Maximum p53 activity was defined as the amount of β-lactamase activity induced by 50 μM azide-ATSP-7041 (stapled p53 peptide; Aileron Therapeutics, Inc.). This was determined as the highest amount of p53 activity induced by azide-ATSP-7041 by titration on HCT116 cells.

[4] = HPLC LogD
[5] = test system: HCT116 cells; experiment: Lactate dehydrogenase release assay (LDH); format: cell-based
Experimental: HCT116 cells were seeded into a 384-well plate at a density of 8000 cells per well. Cells were maintained in McCoy's 5A Medium with 10% fetal bovine serum (FBS), Blasticidin and Penicillin/Streptomycin. The cells were incubated overnight followed by the removal of cell media and the addition of Opti-MEM Medium without FBS. Cells were then treated with peptides for 4/16 hours in Opti-MEM either in 10% FBS or serum free. Final concentration of DMSO was 0.5%. Lactate dehydrogenase release was detected using CytoTox-ONE Homogenous Membrane Integrity Assay Kit (Promega) as per manufacturer's instructions. Measurements were carried out using Tecan plate reader. Maximum LDH release was defined as the amount of LDH released induced by the lytic peptide (iDNA79) and used to normalize the results.

[6] = test system: Jump-In T-REx CHO-K1 BLA cells; experiment: Tetracycline beta-lactamase reporter gene assay (counter screen); format: cell-based
Experimental: Based on Jump-In™ T-REx™ CHO-K1 BLA cells and contain a stably integrated β-lactamase under the control of an inducible CMV promoter. Cells were seeded into a 384-well plate a density of 4000 cells per well. Cells were maintained in Dulbecco's Minimal Eagle Medium (DMEM) with 10% fetal bovine serum (FBS), Blasticidin and Penicillin/Streptomycin. The cells were incubated for 24 hours, followed by cell media removal and replacement with Opti-MEM either containing 10% FBS or 0% FBS. Peptides were then dispensed to each well using a liquid handler, ECHO 555 and incubated for 4/16 hours. Final working concentration of DMSO was 0.5%. β-Lactamase activity was detected using the ToxBLAzer Dual Screen (Invitrogen) as per manufacturer's instructions. Measurements were carried out using Envision multiplate reader (Perkin Elmer). Counter Screen activity was defined as the amount of 0-lactamase activity induced by tetracycline.

[7] = Circular dichroism (CD) helicity; format: physicochemical
Experimental: The dried peptide was reconstituted in a buffer containing 1 mM HEPES pH 7.4 and 5% methanol to a concentration of 1 mM. The peptide sample was placed in a quartz cuvette with a path length of 0.2 cm and a CD spectrum was recorded from 300 to 190 nm at 25° C. using the Chirascan-plus qCD machine (Applied Photophysics). The actual concentration of the peptide was determined by the absorbance of the peptide at […]. An estimate of the secondary structure components of the peptide was carried out by converting the CD spectrum to mean residue ellipticity before deconvoluting using the CDNN software (distributed by Applied Photophysics). All experiments were done in duplicate.

[8] = test system: HCT116
[9] = test system: p53 null Ca Ski; conditions: for % inhibition at maximum concentration in p53 null negative control cell line: maximum assay concentration (50 uM)
[10] = read-out: HCT116 proliferation EC50, 72 h, 10% serum

CC(=O)N[C@@H](CCCCN=[N+]=[N-])C(=O)NCCC(=O)N[C@@H](CC(C)C)C(=O)N[C@H](C(=O)N[C@@H](Cc1ccccc1)C(=O)N[C@]1(C)CCCCCCC=CCCC[C@@](C)(C(=O)N[C@@H](C)C(=O)N[C@@H](C)C(=O)N[C@@H](C)C(N)=O)NC(=O)[C@H](CC2CCC2)NC(=O)[C@H](CCC(N)=O)NC(=O)[C@H](C)NC(=O)[C@H](Cc2c[nH]c3ccccc23)NC(=O)[C@H](Cc2ccc(O)cc2)NC(=O)[C@H](CCC(=O)O)NC1=O)[C@@H](C)O [Reference Macrocycle 1, Ac-K(N3)-betaAla-L-T-F-X1a-E-Y-W-A-Q-Cba-X2a-AAA-NH2 (olefin staple from X1a to X2a), reference compound] (Ac-[Lys(N3)][βAla]LTF[R8]EYWAQ[Cba][S5]AAA-NH2; staple 6-13)
solubility [1]: 108 µM (≈ 211 µg/mL)
pKd [2]: 7.44
pEC50 ([3]; 0% serum at 4 hours): 6.47
pEC50 ([3]; 10% serum at 16 hours): 6.07
logD [4]: 2.93
pEC50 ([5]; 0% FBS, 4 h): < 4.30
pEC50 ([6]; 0% FBS, 4 h): < 4.30

CC(=O)N[C@@H](CCCCN=[N+]=[N-])C(=O)NCCC(=O)N[C@@H](CC(C)C)C(=O)N[C@H](C(=O)N[C@@H](Cc1ccccc1)C(=O)N[C@]1(C)CCCCCCC=CCCC[C@@](C)(C(=O)N[C@@H](C)C(=O)N[C@@H](C)C(=O)N[C@@H](Cc2ccccc2)C(=O)NC(C)(C)C(=O)N[C@@H](C)C(=O)N[C@@H](C)C(N)=O)NC(=O)[C@H](CC2CCC2)NC(=O)[C@H](CCC(N)=O)NC(=O)[C@H](C)NC(=O)[C@H](Cc2c[nH]c3ccccc23)NC(=O)[C@H](Cc2ccc(O)cc2)NC(=O)[C@H](CCC(=O)O)NC1=O)[C@@H](C)O [Macrocycle 8, Ac-K(N3)-betaAla-L-T-F-X1a-E-Y-W-A-Q-Cba-X2a-AAF-Aib-AA-NH2(olefinstaple from X1ato X2a)] (Ac-[Lys(N3)][βAla]LTF[R8]EYWAQ[Cba][S5]AAF[Aib]AA-NH2; staple 6-13)
pKd [2]: 8.13
CD (% helicity) [7]: 35%
pEC50 ([5]; 0% FBS, 4 h): 4.78
pEC50 ([5]; 10% FBS, 16 h): < 4.30
pEC50 ([6]; 0% FBS, 4 h): < 4.30
pEC50 ([6]; 10% FBS, 16 h): < 4.30

CC(=O)N[C@@H](CCCCN=[N+]=[N-])C(=O)NCCC(=O)N[C@@H](CC(C)C)C(=O)N[C@H](C(=O)N[C@@H](Cc1ccccc1)C(=O)N[C@]1(C)CCCCCCC=CCCC[C@@](C)(C(=O)N[C@@H](C)C(=O)N[C@@H](C)C(=O)N[C@@H](Cc2ccccc2)C(=O)N[C@@H](C)C(=O)N[C@@H](C)C(=O)N[C@@H](Cc2ccccc2)C(N)=O)NC(=O)[C@H](CC2CCC2)NC(=O)[C@H](CCC(N)=O)NC(=O)[C@H](C)NC(=O)[C@H](Cc2c[nH]c3ccccc23)NC(=O)[C@H](Cc2ccc(O)cc2)NC(=O)[C@H](CCC(=O)O)NC1=O)[C@@H](C)O [Macrocycle 4, Ac-K(N3)-betaAla-L-T-F-X1a-E-Y-W-A-Q-Cba-X2a-AAFAAF-NH2 (olefin staple from X1a to X2a)] (Ac-[Lys(N3)][βAla]LTF[R8]EYWAQ[Cba][S5]AAFAAF-NH2; staple 6-13)
pKd [2]: 7.57
HCT116 proliferation % Max ([8]; 72 h, 10% serum): 68%
pEC50 [8, 10]: 5.92
pEC50 ([8]; read-out: cellular efficacy in cell proliferation HTC116 p53 positive control cell lines): 5.92
pEC50 ([3]; 0% serum at 4 hours): 7.44
pEC50 ([3]; 10% serum at 16 hours): 6.63
CD (% helicity) [7]: 45%
pEC50 ([5]; 0% FBS, 4 h): < 4.30
pEC50 ([5]; 10% FBS, 16 h): < 4.30
pEC50 ([6]; 0% FBS, 4 h): 4.46
pEC50 ([6]; 10% FBS, 16 h): < 4.30

CC(=O)N[C@@H](CCCCN=[N+]=[N-])C(=O)NCCC(=O)N[C@@H](CC(C)C)C(=O)N[C@H](C(=O)N[C@@H](Cc1ccccc1)C(=O)N[C@]1(C)CCCCCCC=CCCC[C@@](C)(C(=O)N[C@@H](C)C(=O)N[C@@H](C)C(=O)N[C@@H](CCC(=O)O)C(=O)N[C@@H](C)C(=O)N[C@@H](C)C(=O)N[C@H](C)C(N)=O)NC(=O)[C@H](CC2CCC2)NC(=O)[C@H](CCC(N)=O)NC(=O)[C@H](C)NC(=O)[C@H](Cc2c[nH]c3ccccc23)NC(=O)[C@H](Cc2ccc(O)cc2)NC(=O)[C@H](CCC(=O)O)NC1=O)[C@@H](C)O [Macrocycle 10, Ac-K(N3)-betaAla-L-T-F-X1a-E-Y-W-A-Q-Cba-X2a-AAEAA-(D-Ala)-NH2(olefinstaple from X1ato X2a)] (Ac-[Lys(N3)][βAla]LTF[R8]EYWAQ[Cba][S5]AAEAA[dA]-NH2; staple 6-13)
solubility (in words) [1]: excellent solubility
solubility [1]: 154 µM (≈ 343 µg/mL)
pKd [2]: 8.51
logD [4]: 2.14
% inhibition at maximum concentration in p53 null negative control cell line [9]: −18%
pEC50 ([5]; 0% FBS, 4 h): < 4.30
pEC50 ([5]; 10% FBS, 16 h): < 4.30

CC(=O)N[C@@H](CCCCN=[N+]=[N-])C(=O)NCCC(=O)N[C@@H](CC(C)C)C(=O)N[C@H](C(=O)N[C@@H](Cc1ccccc1)C(=O)N[C@]1(C)CCCCCCC=CCCC[C@@](C)(C(=O)N[C@@H](CC(C(=O)O)C(=O)O)C(=O)N[C@@H](C)C(=O)N[C@@H](C)C(=O)N[C@@H](C)C(=O)N[C@@H](C)C(=O)N[C@@H](C)C(N)=O)NC(=O)[C@H](CC2CCC2)NC(=O)[C@H](CCC(N)=O)NC(=O)[C@H](C)NC(=O)[C@H](Cc2c[nH]c3ccccc23)NC(=O)[C@H](Cc2ccc(O)cc2)NC(=O)[C@H](CCC(=O)O)NC1=O)[C@@H](C)O [Macrocycle 11, Ac-K(N3)-betaAla-L-T-F-X1a-E-Y-W-A-Q-Cba-X2a-(Gla)AAAAA-NH2(olefinstaple from X1ato X2a)] (Ac-[Lys(N3)][βAla]LTF[R8]EYWAQ[Cba][S5][Gla]AAAAA-NH2; staple 6-13)
solubility (in words) [1]: excellent solubility
solubility [1]: 163 µM (≈ 370 µg/mL)
pKd [2]: 9.49
HCT116 proliferation % Max ([8]; 72 h, 10% serum): 73%
fold improvement in HTC116 cell proliferation assay ([8]; as compared to Macrocycle 3): at least 2 fold
pEC50 [8, 10]: 6.10
pEC50 ([3]; 10% serum at 16 hours): 6.28
chromatographic logD [4]: 2.25
p53 null Ca Ski proliferation % Max ([9]; 72 h, 10% serum): −18%
% inhibition at maximum concentration in p53 null negative control cell line [9]: −18%
pEC50 ([5]; 0% FBS, 4 h): < 4.30
pEC50 ([5]; 10% FBS, 16 h): < 4.30
pEC50 ([6]; 0% FBS, 4 h): < 4.30
pEC50 ([6]; 10% FBS, 16 h): < 4.30
